Experimental findings from patent US20130204017A1, “GLYCERYL ASCORBIC ACID ACYLATED DERIVATIVE OR ITS SALT, PRODUCTION METHOD THEREOF, AND COSMETICS” (SEIWA KASEI COMPANY, LIMITED, priority 2012, published 2013) are described below.

The nature of data set [1]: In vitro moisturizing test (amount of retained water). Conditions: 25° C., 65% RH to equilibrium, then 25° C., 20% RH for 24 hours. The class given is physicochemical. On the procedure: (§1) An in vitro moisturizing test and an in vivo moisturizing test of the glyceryl ascorbic acid acylated derivatives of Examples 1 to 6 were carried out according to the following manner. For comparison, sodium ascorbate, magnesium ascorbyl phosphate, glucosyl ascorbic acid, 3-O-glyceryl ascorbic acid, 2-O-glyceryl ascorbic acid and 3-O-cetyl ascorbic acid were used.
A sample shown later was dried, and the dried sample was spread in an amount of about 0.4 g (this weight is represented by W0) on the bottom of a weighing bottle (diameter: 3.6 cm, height excluding lid: 1.8 cm) so as to give uniform thickness. The sample contained in the weighing bottle was allowed to stand still in a constant humidity and constant temperature vessel (ENVIROS KCL-1000, EYELA) under environments of 25° C. and 65% RH. The weight was measured periodically, waiting until sufficient moisture absorption to attain equilibrium of weight increase (about 48 hours). Thereafter, the sample was transferred to under environments of 25° C. and 20% RH (in sealed vessel containing a saturated CH3COOK aqueous solution filled in the bottom part). From the weight after 24 hours (this weight is represented by W1), the amount of retained water per 1 g of the dried sample was calculated according to the following formula.
From the water amount thus calculated, the moisturizing effect was judged based on the following judging criterion, and the results are shown in Table 8.
Δ: 15 mg or more and less than 35 mg

The subject of data set [2] is Normal human dermal fibroblasts. Put plainly: Collagen production evaluation test (Sircol collagen assay). In kind it is cell-based. Conditions: Homo sapiens, Fibroblast; sample 100 μM; cultured 48 hours; read-out: Collagen production promoting effect (collagen production amount, control group is 100%). On the procedure:
The collagen production promoting effects of the glyceryl ascorbic acid acylated derivatives of the present invention were evaluated, according to the following procedure. As comparison, arbutin, ascorbic acid, sodium ascorbate, magnesium ascorbyl phosphate, glucosyl ascorbic acid, 3-O-glyceryl ascorbic acid and 2-O-glyceryl ascorbic acid were used like in Test Example 1.
Normal human dermal fibroblasts were regulated with a 10% (v/v) fetal bovine serum (manufactured by Invitrogen)-containing D-MEM so as to give a cell density of 2.5×10^4 cells/well, then, pre-incubation for 24 hours was performed on a 96-well plate. After the medium was removed, a sample regulated with a 5% (v/v) fetal bovine serum-containing D-MEM to a concentration of 100 μM was added to each well, then, cultured for 48 hours at 37° C. and 5% CO2. After completion of culturing, the amount of free collagen was measured using Sircol collagen assay kit (manufactured by Biocolor).
The collagen production amount in applying a sample at a concentration of 100 μM is obtained as % value when the control group is 100%, and the results are shown in Table 4 based on the following standard.

Data set [3] is described as follows: Stability test: odor and color change of 2% aqueous solution stored at 50° C. Conditions: pH7, ten panelists. In kind it is physicochemical. On the procedure:
Using 2-O-glyceryl-6-O-octanoyl ascorbic acid obtained in Example 2 and 2-O-glyceryl-6-O-octadecanoyl ascorbic acid obtained in Example 9, an evaluation was made on the stability of odor and color change when stored at 50° C. for 4 weeks, according to the following procedure. For comparison, magnesium ascorbyl phosphate, ascorbic acid and 3-O-glyceryl ascorbic acid were used.
Aqueous solutions (2%) of various test samples were adjusted to pH7 with a dilute sodium hydroxide aqueous solution or a dilute hydrochloric acid aqueous solution, and charged into 50 mL screw tubes. The tubes were sealed and stored at 50° C. for 4 weeks. The odor and degree of color change immediately after preparation, after storage for two weeks and after storage for four weeks were evaluated by ten panelists based on the following methods and according to the following criterion.
3: almost no change as compared with that immediately after preparation
2: color change is observed as compared with that immediately after preparation
1: intense color change is observed as compared with that immediately after preparation
Based on the evaluation results, classification was conducted as shown below.
◯: total point of 10 panelists is 25 or more
Δ: total point of 10 panelists is 16 to 24
x: total point of 10 panelists is 15 or less

Another data set relates to B16 melanoma 4A5 cell. Put plainly: Melanin production suppressing evaluation test (theophylline-induced melanine production). The class given is cell-based, mouse. Conditions: sample at a concentration of 100 μl or less; 0.2 mM theophylline; culturing 3 days. The method, then:
As a test for a whitening effect, evaluation of the action of B16 melanoma 4A5 cell on theophylline-induced melanine production was carried out on a glyceryl ascorbic acid acylated derivative of the present invention, according to the following procedure. The same evaluations were carried out also on arbutin, ascorbic acid, sodium ascorbate, magnesium ascorbyl phosphate, glucosyl ascorbic acid, and 3-O-glyceryl ascorbic acid and 2-O-glyceryl ascorbic acid obtained in the Synthesis Examples mentioned above, as comparison.
(1) B16 mouse melanoma 4A5 strain was sowed onto a 48-well plate at a cell density of 2.0×10^4 cells/well. (2) Culturing was performed for 24 hours with Dulbecco's Modified Eagle's medium (manufactured by SIGMA. Hereinafter, abbreviated as D-MEM) containing 10% fetal bovine serum (manufactured by Roshe Diagnostics). Then, it was changed to 0.2 mM theophylline and a 10% fetal bovine serum-containing D-MEM which contains a sample of given concentration. (3) After culturing for 3 days in the co-existence of a sample, the medium was removed using an aspirator. Then, after distilled water was added, cells were broken by an ultrasonic wave. (4) Thereafter, the amount of protein was determined using BCA protein assay kit (manufactured by PIERCE), and the produced amount of melanine was measured by an alkali solubilizing method described later. To the cell-destructed solution was added sodium hydroxide so as to give a final concentration of 2 mol/L and the mixture was dissolved by heating (60° C., 15 minutes), then, the absorbance at 450 nm was measured using a micro plate reader. The melanine amount was calculated from a calibration curve made using synthetic melanine (SIGMA) as a standard. The melanine amount per unit protein was calculated by dividing the melanine amount by the protein amount. (5) The melanine production suppressing rate was calculated according to the following formula.
Melanine production suppressing rate(%)=[1−(A−B)/(C−B)]×100
[wherein, A represents the melanine amount per unit protein (g/g) in adding a sample, B represents the melanine amount per unit protein (g/g) in the normal group, and C represents the melanine amount per unit protein (g/g) in the control group.]
The normal group means the case where neither theophylline nor sample was added.(that is; theophylline(−) and sample(−))
The control group means the case where neither sample was not added but theophylline was added.(that is; theophylline (+) and sample(−))
In the following Tables, the melanine production suppressing rate in applying a sample at a concentration of […] or less is expressed as described below.

A short description of data set [4]: In vivo moisturizing test (stratum corneum water content, forearm). The settings on record: 5 g in 100 mL water, pH 7; 0.3 mL on forearm; 8 hours; 10 subjects. On the procedure:
as §1
Each test sample (5 g) was dissolved in 100 mL of water, and pH thereof was adjusted to 7 with a dilute sodium hydroxide aqueous solution or a dilute hydrochloric acid aqueous solution to prepare a sample solution. A paper filter of 1 cm×1 cm was placed on a forearm portion and 0.3 mL of the prepared sample solution was applied on this, and covered and fixed by a polyamide film. Then, 3 hours and 8 hours after, the stratum corneum water content at the sample-applied portion was measured using CORNEOMETER CM825 (manufactured by Integral Corporation). The test was carried out with 10 subjects, and evaluated according to the following criterion (evaluation standard).
3: Stratum corneum water content increased by 15% or more, based on the water content before sample application
2: Stratum corneum water content increased by 0 to less than 15%, based on the water content before sample application
1: There was no change or there was a reduction in stratum corneum water content, before and after sample application.
Based on the evaluation results, classification was set as described below.
◯: Total points of 10 subjects is 25 or more
Δ: Total points of 10 subjects is 16 to 24
x: Total points of 10 subjects is 15 or less

[5] abbreviates: storage period 0 (immediately after preparation).

Each structure is given as a SMILES string.

Take `O=C1O[C@H]([C@@H](O)CO)C(OCC(O)CO)=C1O` (stereo partly shown) [3-O-glyceryl ascorbic acid]: in data set [1], the “in vitro moisturizing effect (amount of retained water per 1 g of the dried sample)” value is reported as “◯ (35 mg or more)”. The activity at 100 µM in data set [2] lay in the range of 100 to 200%. Besides, the Color change result in data set [3] (storage 2 weeks at 50° C.) is on record as “◯ (total point of 10 panelists is 25 or more)”; in data set [3] (storage 4 weeks at 50° C.), “Δ (total point of 10 panelists is 16 to 24)”; in data set [3] (setting [5]) it was “◯ (total point of 10 panelists is 25 or more)”. The Odor result in data set [3] (storage 2 weeks at 50° C.), in data set [3] (storage 4 weeks at 50° C.) and in data set [3] (setting [5]) was “◯ (total point of 10 panelists is 25 or more)” each time. In addition, the “Whitening effect (melanine production suppressing rate)” value in the data set on B16 melanoma 4A5 cell is given as “Δ (Less than 30%)”. Moreover, the “in vivo moisturizing (stratum corneum water content) after 8 hours” value in data set [4] is listed as “Δ (Total points of 10 subjects is 16 to 24)”.
